Source: US20160166700A1, “METHOD FOR AMELIORATING LIVER FIBROSIS BY USING NANOPARTICLE CONTAINING TYROSINE KINASE INHIBITOR” (National Tsing Hua University, priority 2014, published 2016)

Tests used:
[1] = test system: hepatic stellate cell (HSC); type: cell-based; details: HSCs; MTT after 48 or 72 hours; FIG. 5B
Procedure: The HSC was purchased from ScienCell Research Laboratories (#5300, San Diego, Calif., USA) and the HUVEC was obtained from Bioresource Collection and Research Center, Food Industry Research and Development Institute (BCRC number: H-UV001, Hsinchu, Taiwan). Firstly, HUVECs and HSCs were planted in 96-well plates at a density of 2,000 cells/well and were left overnight for adhesion. Then, different forms of sorafenib or drug carriers were added. After 48 or 72 hours, 3-(4, 5-cimethylthiazol-2-yl)-2, 5-diphenyl tetrazolium bromide (MTT), which dissolved in PBS, was added to each well and the cells were further incubated at 37° C. for 3 hours. Finally, to each well, 50 μL of DMSO were added and a spectrophotometer was used to analyze the result at a wavelength of 570 nm. […] In addition, cells without any treatment served as Vehicle Group, while cells treated with free sorafenib served as Positive Control Group. […] Meanwhile, according to the results of cell viability of the cells treated with the PEG-PLGA particle alone (Negative Control Group 1) and PEG-PLGA/PLGA nanoparticle composition alone (Negative Control Group 2), it is confirmed that the PEG-PLGA and PEG-PLGA/PLGA co-polymer are non-cytotoxic and will not result in death of the target cells.

[2] = test system: α-smooth muscle actin (α-SMA); assay: α-SMA expression (western blotting) as indicator for HSC activation in treated mice; type: in vivo; details: FIG. 9A
Text: The expression of α-smooth muscle actin (α-SMA) is an indicator for HSC activation.

[3] = test system: collagen I; assay: Extracellular matrix (collagen I) content in fibrotic liver of treated mice; type: in vivo; details: FIG. 9C
Text: Collagen is the most abundant protein in not only the human body but also the extracellular matrix.

[4] = Pharmacokinetics of injected C6-loaded nanoparticle composition (C6 in blood); type: in vivo, C3H mice; details: 0.5 to 1 hour after injection; 0.1 mg/kg tail intravenous injection; FIG. 6
Procedure: C6 was injected to C3H mice with or without the nanoparticle encapsulation at a dosage of 0.1 mg/kg via tail intravenous injection. 40 μL of blood from the tail artery of the mice were collected and mixed with ethylenediaminetetraacetic acid (EDTA) at different period of time. Fluorescence intensity was measured under an excitation wavelength of 485 nm and an emission wavelength of 538 nm. Standard curves of the C6 or C6-loaded PLGA nanoparticle composition in blood were used to calculate the content of C6 in mice.

Row | C6 concentration in blood [4] | Structure (SMILES) | cell viability [1] | α-SMA expression (western blotting) [2] | extracellular matrix in fluorescent microscopic image (illuminated regions) [3]
1 |  | CNC(=O)c1cc(Oc2ccc(NC(=O)Nc3ccc(Cl)c(C(F)(F)F)c3)cc2)ccn1 [free sorafenib, sorafenib] | about 75% | suppressed | not noteworthy
2 | about 1% | CCN(CC)c1ccc2cc(-c3nc4ccccc4s3)c(=O)oc2c1 [C6 alone, Coumarin 6] |  |  | 
